Reference: patent publication US4414332A (Boehringer Mannheim GmbH, priority 1980, dated 1983)
“Also recorded” adds a separate entry of the source. Where two headings read alike, the source gives them in different places.

Biological target: T1, endoproteinase-Lys-C (Lysobacter enzymogenes, UniProt Q7M135)
T1 construct: consists of a chain of molecular weight 35000 to 38000 Dalton; made in house
Assay: Inhibition of endoproteinase-Lys-C by protease inhibitors
Format: biochemical, Lysobacter enzymogenes ssp. enzymogenes

T1 sequence (Q7M135 whole entry): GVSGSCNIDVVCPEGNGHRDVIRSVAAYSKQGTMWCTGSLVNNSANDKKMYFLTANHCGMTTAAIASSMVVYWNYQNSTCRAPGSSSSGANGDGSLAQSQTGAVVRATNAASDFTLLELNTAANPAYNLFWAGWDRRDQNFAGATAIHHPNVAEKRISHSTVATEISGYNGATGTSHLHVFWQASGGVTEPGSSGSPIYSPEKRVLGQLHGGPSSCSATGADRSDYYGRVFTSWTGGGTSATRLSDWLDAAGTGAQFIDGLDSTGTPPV

Row | Molecule | inhibition of the enzyme | also measured
1 | O=C(O)CN(CCN(CC(=O)O)CC(=O)O)CC(=O)O [ethylenediaminetetraacetic acid] | not inhibited | inhibition of the enzyme (EDTA up to 10^-2 M): do not inhibit
2 | α2 -macroglobulin | not inhibited | inhibition of the enzyme (listed as alpha2 microglobulin): do not inhibit
3 | α1 -antitrypsin | not inhibited; also recorded: do not inhibit | –
4 | aprotinin | inhibited | inhibition of the enzyme (listed as Aprotonin): inhibits the enzyme completely
5 | N=C(N)c1ccccc1 [Benzamidine] | – | inhibition at 2500 µM (at 2.5 mM, read-out: inhibition of the enzyme): ~50%
